Measured values: PMC7160233, “Peptides With Triplet-Tryptophan-Pivot Promoted Pathogenic Bacteria Membrane Defects” (Frontiers in Microbiology, 2020)

Columns and labels:
[1] = system: humans; details: corresponding to the rat value, ref Richard et al., 2009, Fernstrom, 2012; cited from earlier work
Text: (§1) Also, the indole ring of tryptophan prefers to interact with a […], and the indole NH being close to a lipid carbonyl ester leads W-containing peptides to be powerful and safe promising antibiotic candidates with different beneficial effects ([Dixon et al., 2003]; ...

[2] = system: rats; details: ref Richard et al., 2009, Fernstrom, 2012; cited from earlier work
Text: as §1

[3] = system: E. coli ATCC 25922; assay: Drug resistance experiment (sequential passaging); assay type: cell-based, Escherichia coli; details: E. coli 25922, passaged at sub-MIC for 30 days
Procedure: Resistance development of E. coli ATCC 25922 against antibiotics was investigated using a sequential passaging method. Briefly, in the first generation, the MIC value was determined as described previously. After a 24 h incubation, bacterial cells growing in a well with a half-MIC level were harvested and diluted to 0.05 at OD600, followed by a 1:10 dilution in fresh MHB. The inoculum was subjected to subsequent passage MIC testing, and the process was repeated for 30 days. The fold change in MIC was plotted against the number of passages.

[4] = system: E. coli ATCC 25922; assay: Mouse infection model, bacterial load; assay type: in vivo; details: ICR mice, i.p. E. coli 1 × 10^8 CFU/ml, 5 mg/kg i.p. 1 h later, 6 h, P < 0.05
Procedure: Female Institute for Cancer Research (ICR) mice (SPF, 20–25 g) were purchased from WeiTonglihua, Co., Ltd. (Beijing, China). Mice were fed and acclimatized as described ([Chou et al., 2019]). E. coli ATCC 25922 was adopted as the pathogenic bacterium for the infection model in this study. In this mouse model, the antimicrobial activity of S7 was determined by colony counting of blood and various organs. Briefly, the mice were divided into four groups (six groups for anti-inflammatory assay) and received intraperitoneal injections of 100 μl E. coli (1 × 10^8 CFU/ml) cells in 0.9% NaCl or only 100 μl 0.9% NaCl as control. 1 h later, 100 μl S7 (5 mg/kg), 100 μl 0.9% NaCl, 100 μl gentamicin (5 mg/kg) or 100 μl 0.9% NaCl, was intraperitoneally injected to the treated or control groups, respectively. And the mice were sacrificed via excessive anesthesia after 6 h post-challenge. The anti-inflammatory effect of S7 was measured by testing the levels of TNF-α, IL-6, and IL-1β in serum using a TNF-α enzyme-linked immunosorbent assay (ELISA) kit, an IL-6 ELISA kit and an IL-1β ELISA kit according to the manufacturer’s instructions (Shanghai Jin Ma Laboratory Equipment, Co., Ltd.).

Row | Compound | median lethal dose (LD50), corresponding dose in humans [1] [g/kg] | median lethal dose (LD50) [2] [g/kg] | resistance development (change in MIC on serial passaging) [3] | number of colonies in blood, kidney and liver versus E. coli group [4]
1 | N[C@@H](Cc1c[nH]c2ccccc12)C(=O)O [Tryptophan (W), Tryptophan] | ~1.4 | 1.6 |  | 
2 | CNC(C)C1CCC(N)C(OC2C(N)CC(N)C(OC3OCC(C)(O)C(NC)C3O)C2O)O1 (stereo not shown) [gentamicin] |  |  | induced rapid resistance acquisition | significantly decreased
